In publication PMC5218480 (PLoS ONE, 2017):

Test system: MV-4-11 cells
Assay: Gene expression microarray analysis (Affymetrix PrimeView) and GSEA
Type: cell-based, human
Design: RFU PODN (11730768_x_at) / Fold change /veh PODN (11730768_x_at) / RFU LINC00158 (11744669_a_at) / Fold change /veh LINC00158 (11744669_a_at) / RFU DUSP10 (11751237_a_at) / Fold change /veh DUSP10 (11751237_a_at) / RFU ID3 (11757404_x_at) / Fold change /veh ID3 (11757404_x_at) / RFU PLEKHG5 (11737974_s_at) / Fold change /veh PLEKHG5 (11737974_s_at) / RFU LRRC4B (11730491_at) / Fold change /veh LRRC4B (11730491_at) / RFU GIMAP4 (11747438_a_at) / Fold change /veh GIMAP4 (11747438_a_at) / RFU KRT8 (11758183_x_at) / Fold change /veh KRT8 (11758183_x_at) / RFU CNN1 (11734310_a_at) / Fold change /veh CNN1 (11734310_a_at) / RFU VPS37D (11726825_at) / Fold change /veh VPS37D (11726825_at) / RFU C10orf10 (11716522_x_at) / Fold change /veh C10orf10 (11716522_x_at) / RFU KIR2DL2 /// KIR2DL4 /// KIR2DL5A /// KIR2DL5B /// KIR2DS1 /// KIR2DS2 /// KIR2DS3 /// KIR2DS4 /// KIR3DL3 /// KIR3DL3 /// KIR3DS1 (11738374_at) / Fold change /veh KIR2DL2 /// KIR2DL4 /// KIR2DL5A /// KIR2DL5B /// KIR2DS1 /// KIR2DS2 /// KIR2DS3 /// KIR2DS4 /// KIR3DL3 /// KIR3DL3 /// KIR3DS1 (11738374_at) / RFU C1QL1 (11718748_at) / Fold change /veh C1QL1 (11718748_at) / RFU TMPRSS4 (11747572_a_at) / Fold change /veh TMPRSS4 (11747572_a_at) / RFU HAMP (11756126_x_at) / Fold change /veh HAMP (11756126_x_at) / RFU RNFT2 (11725882_a_at) / Fold change /veh RNFT2 (11725882_a_at) / RFU NR4A2 (11747474_a_at) / Fold change /veh NR4A2 (11747474_a_at) / RFU ABCC12 (11746883_a_at) / Fold change /veh ABCC12 (11746883_a_at) / RFU TMEM136 (11760407_x_at) / Fold change /veh TMEM136 (11760407_x_at) / RFU CLDN22 /// WWC2 (11732394_at) / Fold change /veh CLDN22 /// WWC2 (11732394_at) / RFU HLA-DPB1 (11760878_x_at) / Fold change /veh HLA-DPB1 (11760878_x_at) / RFU SPINT1 (11716480_a_at) / Fold change /veh SPINT1 (11716480_a_at) / RFU GAP43 (11754022_s_at) / Fold change /veh GAP43 (11754022_s_at) / RFU A4GNT (11735810_at) / Fold change /veh A4GNT (11735810_at) / RFU PRB3 (11715151_x_at) / Fold change /veh PRB3 (11715151_x_at) / RFU TUBB4B (11761932_at) / Fold change /veh TUBB4B (11761932_at) / RFU CAPN14 (11732068_a_at) / Fold change /veh CAPN14 (11732068_a_at) / RFU TMCC2 (11721928_a_at) / Fold change /veh TMCC2 (11721928_a_at) / RFU IRGQ (11745062_a_at) / Fold change /veh IRGQ (11745062_a_at) / RFU FAM174B (11720279_a_at) / Fold change /veh FAM174B (11720279_a_at) / RFU TMPRSS4 (11748680_a_at) / Fold change /veh TMPRSS4 (11748680_a_at) / RFU FAM212B (11763350_a_at) / Fold change /veh FAM212B (11763350_a_at) / RFU PLEKHG5 (11743358_a_at) / Fold change /veh PLEKHG5 (11743358_a_at) / RFU ZSCAN30 (11745921_a_at) / Fold change /veh ZSCAN30 (11745921_a_at) / RFU CMKLR1 (11741424_a_at) / Fold change /veh CMKLR1 (11741424_a_at) / RFU LOC101060620 /// MAPK8IP1 (11723275_at) / Fold change /veh LOC101060620 /// MAPK8IP1 (11723275_at) / RFU SPTSSB (11747773_x_at) / Fold change /veh SPTSSB (11747773_x_at) / RFU PRSS12 (11739890_at) / Fold change /veh PRSS12 (11739890_at) / RFU BIN1 (11741810_x_at) / Fold change /veh BIN1 (11741810_x_at) / RFU WNT11 (11732464_a_at) / Fold change /veh WNT11 (11732464_a_at) / RFU C10orf10 (11716521_a_at) / Fold change /veh C10orf10 (11716521_a_at) / RFU C5orf56 (11738089_at) / Fold change /veh C5orf56 (11738089_at) / RFU CYB561 (11721691_x_at) / Fold change /veh CYB561 (11721691_x_at) / RFU ANKRD19P (11752326_a_at) / Fold change /veh ANKRD19P (11752326_a_at) / RFU OR2T12 /// OR2T33 /// OR2T8 (11738714_s_at) / Fold change /veh OR2T12 /// OR2T33 /// OR2T8 (11738714_s_at) / RFU VCAN (11748164_a_at) / Fold change /veh VCAN (11748164_a_at) / RFU JSRP1 (11732532_at) / Fold change /veh JSRP1 (11732532_at) / RFU KRTAP10-11 (11738290_x_at) / Fold change /veh KRTAP10-11 (11738290_x_at) / RFU MYO3A (11730013_a_at) / Fold change /veh MYO3A (11730013_a_at) / RFU EBF3 (11725865_a_at) / Fold change /veh EBF3 (11725865_a_at) / RFU CAMK2N1 (11719241_x_at) / Fold change /veh CAMK2N1 (11719241_x_at) / RFU C5orf56 (11738088_a_at) / Fold change /veh C5orf56 (11738088_a_at) / RFU OLFML3 (11715873_a_at) / Fold change /veh OLFML3 (11715873_a_at) / RFU LOC100653217 /// NTM (11731650_a_at) / Fold change /veh LOC100653217 /// NTM (11731650_a_at) / RFU MAPK11 (11762145_a_at) / Fold change /veh MAPK11 (11762145_a_at) / RFU FIZ1 (11724087_x_at) / Fold change /veh FIZ1 (11724087_x_at) / RFU OASL (11726364_x_at) / Fold change /veh OASL (11726364_x_at) / RFU SOX15 (11748057_x_at) / Fold change /veh SOX15 (11748057_x_at) / RFU CD79A (11719716_a_at) / Fold change /veh CD79A (11719716_a_at) / RFU HIST1H1D (11736915_at) / Fold change /veh HIST1H1D (11736915_at) / RFU CASKIN2 (11723855_a_at) / Fold change /veh CASKIN2 (11723855_a_at) / RFU LOC730098 (11760151_x_at) / Fold change /veh LOC730098 (11760151_x_at) / RFU OR4N2 (11742367_at) / Fold change /veh OR4N2 (11742367_at) / RFU PRRT2 (11749266_a_at) / Fold change /veh PRRT2 (11749266_a_at) / RFU SNX32 (11753110_a_at) / Fold change /veh SNX32 (11753110_a_at) / RFU CDHR5 (11726645_a_at) / Fold change /veh CDHR5 (11726645_a_at) / RFU RCAN1 (11760418_a_at) / Fold change /veh RCAN1 (11760418_a_at) / RFU FAM167A (11723789_a_at) / Fold change /veh FAM167A (11723789_a_at) / RFU FAM26E (11764081_at) / Fold change /veh FAM26E (11764081_at) / RFU ISYNA1 (11749810_s_at) / Fold change /veh ISYNA1 (11749810_s_at) / RFU ACY1 (11761880_at) / Fold change /veh ACY1 (11761880_at) / RFU 11764098_at / Fold change /veh 11764098_at / RFU SAMD14 (11745864_x_at) / Fold change /veh SAMD14 (11745864_x_at) / RFU NPB (11741838_a_at) / Fold change /veh NPB (11741838_a_at) / RFU TMPRSS6 (11731388_a_at) / Fold change /veh TMPRSS6 (11731388_a_at) / RFU KRTAP10-2 (11738614_at) / Fold change /veh KRTAP10-2 (11738614_at) / RFU ARHGAP8 /// PRR5-ARHGAP8 (11727945_x_at) / Fold change /veh ARHGAP8 /// PRR5-ARHGAP8 (11727945_x_at) / RFU KRTAP5-7 /// NADSYN1 (11734609_at) / Fold change /veh KRTAP5-7 /// NADSYN1 (11734609_at) / RFU RASL12 (11751679_a_at) / Fold change /veh RASL12 (11751679_a_at) / RFU CDKN2B (11736163_a_at) / Fold change /veh CDKN2B (11736163_a_at) / RFU PRF1 (11729649_at) / Fold change /veh PRF1 (11729649_at) / RFU, ZNF638 /// ZNF638-IT1 / Fold change vs veh, ZNF638 /// ZNF638-IT1 / RFU, PANK3 / Fold change vs veh, PANK3 / RFU, SH3YL1 / Fold change vs veh, SH3YL1 / RFU, ZEB2 / Fold change vs veh, ZEB2 / RFU, NRIP1 / Fold change vs veh, NRIP1 / RFU, PTTG1IP / Fold change vs veh, PTTG1IP / RFU, CAPN2 / Fold change vs veh, CAPN2 / RFU, MED14 / Fold change vs veh, MED14 / RFU, SNORA58 / Fold change vs veh, SNORA58 / RFU, C1orf63 / Fold change vs veh, C1orf63 / RFU, LRRFIP1 / Fold change vs veh, LRRFIP1 / RFU, NDUFAF7 / Fold change vs veh, NDUFAF7 / RFU, SLC12A2 / Fold change vs veh, SLC12A2 / RFU, IBTK / Fold change vs veh, IBTK / RFU, ESF1 / Fold change vs veh, ESF1 / Fold change vs veh, TMEM50B / RFU, TAOK1 / Fold change vs veh, TAOK1 / RFU, ACBD3 / Fold change vs veh, ACBD3 / RFU, TMA16 / Fold change vs veh, TMA16 / RFU, RWDD3 / Fold change vs veh, RWDD3 / RFU, BCAT1 / Fold change vs veh, BCAT1 / RFU, EDEM3 / Fold change vs veh, EDEM3 / RFU, TMEM33 / Fold change vs veh, TMEM33 / RFU, WDR75 / Fold change vs veh, WDR75 / RFU, AHCTF1 / Fold change vs veh, AHCTF1 / RFU, TFRC / Fold change vs veh, TFRC / RFU, ZDHHC17 / Fold change vs veh, ZDHHC17 / RFU, NOM1 / Fold change vs veh, NOM1 / RFU, ARL8B / Fold change vs veh, ARL8B / RFU, ZBTB11 / Fold change vs veh, ZBTB11 / RFU, TAMM41 / Fold change vs veh, TAMM41 / RFU, KIAA1704 /// LOC100996395 / Fold change vs veh, KIAA1704 /// LOC100996395 / RFU, ING1 / Fold change vs veh, ING1 / RFU, TRMT61B / Fold change vs veh, TRMT61B / RFU, FUBP3 / Fold change vs veh, FUBP3 / RFU, TP53 / Fold change vs veh, TP53 / RFU, TNKS2 / Fold change vs veh, TNKS2 / RFU, ZFP14 / Fold change vs veh, ZFP14 / RFU, ACTR2 / Fold change vs veh, ACTR2 / RFU, PPP3R1 / Fold change vs veh, PPP3R1 / RFU, PIK3R1 / Fold change vs veh, PIK3R1 / RFU, HNRNPA1 / Fold change vs veh, HNRNPA1 / RFU, RNF170 / Fold change vs veh, RNF170 / RFU, ZNF28 / Fold change vs veh, ZNF28 / RFU, RNGTT / Fold change vs veh, RNGTT / RFU, OGT / Fold change vs veh, OGT / RFU, BRD1 / Fold change vs veh, BRD1 / RFU, MARS / Fold change vs veh, MARS / RFU, ZNF655 / Fold change vs veh, ZNF655 / RFU, FAHD1 / Fold change vs veh, FAHD1 / RFU, BDP1 / Fold change vs veh, BDP1 / RFU, LRRCC1 / Fold change vs veh, LRRCC1 / RFU, ARID1A / Fold change vs veh, ARID1A / RFU, ZNF146 / Fold change vs veh, ZNF146 / RFU, ZNF330 / Fold change vs veh, ZNF330 / RFU, GPN3 / Fold change vs veh, GPN3 / RFU, C9orf123 / Fold change vs veh, C9orf123 / RFU, N4BP2L2 / Fold change vs veh, N4BP2L2 / RFU, ARFIP1 / Fold change vs veh, ARFIP1 / RFU, FAM179B / Fold change vs veh, FAM179B / RFU, BCL10 / Fold change vs veh, BCL10 / RFU, UHRF1BP1L / Fold change vs veh, UHRF1BP1L / RFU, BET1 / Fold change vs veh, BET1 / RFU, CNOT2 / Fold change vs veh, CNOT2 / RFU, ZNF268 / Fold change vs veh, ZNF268 / Fold change vs veh, ZNF507 / RFU, DGCR2 / Fold change vs veh, DGCR2 / RFU, WDSUB1 / Fold change vs veh, WDSUB1 / Fold change vs veh, HSP90B1 /// MIR3652 / RFU, ADSS / Fold change vs veh, ADSS / RFU, GK / Fold change vs veh, GK / RFU, ZNF148 / Fold change vs veh, ZNF148 / RFU, TAF9 / Fold change vs veh, TAF9 / RFU, SLC1A5 / Fold change vs veh, SLC1A5 / RFU, SLMO2 / Fold change vs veh, SLMO2 / RFU, ABCC4 / Fold change vs veh, ABCC4 / RFU, LOC101060439 /// RAP1B / Fold change vs veh, LOC101060439 /// RAP1B / RFU, RFX7 / Fold change vs veh, RFX7 / RFU, GTPBP10 / Fold change vs veh, GTPBP10 / RFU, CNEP1R1 / Fold change vs veh, CNEP1R1 / RFU, BIVM-ERCC5 /// ERCC5 / Fold change vs veh, BIVM-ERCC5 /// ERCC5 / RFU, ILF3 / Fold change vs veh, ILF3 / RFU 11762660_at / Fold change /veh 11762660_at / RFU VCAN (11757783_s_at) / Fold change /veh VCAN (11757783_s_at) / RFU DDX43 (11728927_at) / Fold change /veh DDX43 (11728927_at) / RFU KRT8 (11758188_x_at) / Fold change /veh KRT8 (11758188_x_at) / RFU NKD1 (11759106_at) / Fold change /veh NKD1 (11759106_at) / RFU SRD5A1 (11742802_a_at) / Fold change /veh SRD5A1 (11742802_a_at) / RFU TPSAB1 /// TPSB2 (11721975_s_at) / Fold change /veh TPSAB1 /// TPSB2 (11721975_s_at) / RFU GSTM3 (11746129_a_at) / Fold change /veh GSTM3 (11746129_a_at) / RFU IL23R (11737362_x_at) / Fold change /veh IL23R (11737362_x_at) / RFU TMEM51 (11727254_a_at) / Fold change /veh TMEM51 (11727254_a_at) / RFU PIWIL2 (11732686_x_at) / Fold change /veh PIWIL2 (11732686_x_at) / RFU ORM1 (11744905_x_at) / Fold change /veh ORM1 (11744905_x_at) / RFU CCDC152 (11743942_at) / Fold change /veh CCDC152 (11743942_at) / RFU ECM1 (11717891_a_at) / Fold change /veh ECM1 (11717891_a_at) / RFU IL23R (11748794_a_at) / Fold change /veh IL23R (11748794_a_at) / RFU TNFAIP8L3 (11732012_x_at) / Fold change /veh TNFAIP8L3 (11732012_x_at) / RFU MBOAT4 (11741988_at) / Fold change /veh MBOAT4 (11741988_at) / RFU 11764193_at / Fold change /veh 11764193_at / RFU TMEM53 (11763286_at) / Fold change /veh TMEM53 (11763286_at) / RFU MAGEB2 (11727129_at) / Fold change /veh MAGEB2 (11727129_at) / RFU TMEM200A (11744735_a_at) / Fold change /veh TMEM200A (11744735_a_at) / RFU CCDC152 (11751479_a_at) / Fold change /veh CCDC152 (11751479_a_at) / RFU FAM211A (11726209_a_at) / Fold change /veh FAM211A (11726209_a_at) / RFU RGS16 (11746705_a_at) / Fold change /veh RGS16 (11746705_a_at) / RFU VCAN (11755009_s_at) / Fold change /veh VCAN (11755009_s_at) / RFU RHOB (11743442_s_at) / Fold change /veh RHOB (11743442_s_at) / RFU RGS16 (11720943_a_at) / Fold change /veh RGS16 (11720943_a_at) / RFU RGS16 (11720944_at) / Fold change /veh RGS16 (11720944_at) / RFU, VPS4B / Fold change vs veh, VPS4B / RFU, CREB1 / Fold change vs veh, CREB1 / RFU, DNAJC13 / Fold change vs veh, DNAJC13 / RFU, GNAQ / Fold change vs veh, GNAQ / RFU, CDK5R1 / Fold change vs veh, CDK5R1 / RFU, ZRANB3 / Fold change vs veh, ZRANB3 / RFU, CUL4A / Fold change vs veh, CUL4A / RFU, CCNY / Fold change vs veh, CCNY / RFU, UFL1 / Fold change vs veh, UFL1 / RFU, COG3 / Fold change vs veh, COG3 / RFU, DIAPH2 / Fold change vs veh, DIAPH2 / RFU, SKA2 / Fold change vs veh, SKA2 / RFU, AFF3 / Fold change vs veh, AFF3 / RFU, LMF1 / Fold change vs veh, LMF1 / RFU, IPO11 / Fold change vs veh, IPO11 / RFU, DFFB / Fold change vs veh, DFFB / RFU, FOXP1 / Fold change vs veh, FOXP1 / RFU, CARD8 / Fold change vs veh, CARD8 / RFU, STRN3 / Fold change vs veh, STRN3 / RFU, ADK / Fold change vs veh, ADK / RFU, RASSF2 / Fold change vs veh, RASSF2 / RFU, WIPF1 / Fold change vs veh, WIPF1 / RFU, LARP1B / Fold change vs veh, LARP1B / RFU, RASA1 / Fold change vs veh, RASA1 / RFU, RB1 / Fold change vs veh, RB1 / RFU, PPFIA1 / Fold change vs veh, PPFIA1 / RFU, MAT2A / Fold change vs veh, MAT2A / RFU, CCT5 / Fold change vs veh, CCT5 / RFU, WDR92 / Fold change vs veh, WDR92 / RFU, CUX1 / Fold change vs veh, CUX1 / RFU, TTC7A / Fold change vs veh, TTC7A / RFU, TMEM135 / Fold change vs veh, TMEM135 / RFU, DEPTOR / Fold change vs veh, DEPTOR / RFU, CPM / Fold change vs veh, CPM / RFU, DNAJB6 / Fold change vs veh, DNAJB6 / RFU, CACNA2D3 / Fold change vs veh, CACNA2D3 / RFU, DTX4 / Fold change vs veh, DTX4 / RFU, TFCP2 / Fold change vs veh, TFCP2 / RFU, GMCL1 /// GMCL1P1 / Fold change vs veh, GMCL1 /// GMCL1P1 / RFU, AEBP2 / Fold change vs veh, AEBP2 / RFU, SNHG1 /// SNORD22 /// SNORD25 /// SNORD26 /// SNORD27 /// SNORD28 /// SNORD29 /// SNORD31 / Fold change vs veh, SNHG1 /// SNORD22 /// SNORD25 /// SNORD26 /// SNORD27 /// SNORD28 /// SNORD29 /// SNORD31 / Fold change (Aza/veh), C12orf56 (ProbeSet 11735607_a_at) / Fold change (ACY-1035/veh), C12orf56 (ProbeSet 11735607_a_at) / Fold change (Aza/veh), FGFR1OP (ProbeSet 11751329_s_at) / Fold change (ACY-1035/veh), FGFR1OP (ProbeSet 11751329_s_at) / Fold change (Aza/veh), VPS36 (ProbeSet 11739960_a_at) / Fold change (ACY-1035/veh), VPS36 (ProbeSet 11739960_a_at) / RFU SYPL1 (11715823_x_at) / Fold change /veh SYPL1 (11715823_x_at) / RFU IGFBP7 (11715501_s_at) / Fold change /veh IGFBP7 (11715501_s_at) / RFU REEP3 (11722064_at) / Fold change /veh REEP3 (11722064_at) / RFU IGLL1 (11728026_x_at) / Fold change /veh IGLL1 (11728026_x_at): dose or concentration left out as unconfirmed
Conditions: MV-4-11 cells, 48 hours

SMILES: Nc1ccc(-c2cccs2)cc1NC(=O)c1ccc2c(c1)cc(C1CC1)n2CCN1CCOCC1 [ACY-1035]
- RFU IGLL1 (11728026_x_at): 5.54 RFU
